ChEMBL document CHEMBL1201862, “PubChem BioAssay data set” (2004)
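Five concentrations, 48 hours, 96-well plates. GI50 marks 50% less growth.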 Calls of active or inactive are those of the source. No stated cut-off is given here; in the data, active = GI50 up to about 1.1 µM and inactive = higher. Starred links: 1 amine or outer side, 2 acyl side, 3 side chain; linkers in the order of their positions; H or OH if unused. Residues, ends and D or L forms follow the SMILES beside them. *: point of attachment. γGlu = O=C(O)[CH](CCC(=O)[*:2])N[*:1]; NHOH = ON*

Experiments:
Assay in all cases: NCI tumour cell line growth inhibition, 48 h
Malme-3M = system: Malme-3M
U-251 = system: U-251
SNB-19 = system: SNB-19
SK-MEL-5 = system: SK-MEL-5
TK-10 = system: TK-10
MOLT-4 = system: MOLT-4
M14 = system: M14
786-0 = system: 786-0
A549 = system: A549
MCF7 = system: MCF7
RPMI-8226 = system: RPMI-8226
EKVX = system: EKVX
HCT-116 = system: HCT-116
MDA-MB-435 = system: MDA-MB-435
UACC-257 = system: UACC-257
OVCAR-4 = system: OVCAR-4
SK-MEL-2 = system: SK-MEL-2
NCI-H226 = system: NCI-H226
OVCAR-8 = system: OVCAR-8
SR = system: SR

Measured: GI50

COc1ccc(C2=NN(C(=O)c3ccccc3)C(O)(c3cc(F)c(Cl)cc3Cl)C2)cc1OC (stereo not drawn)
inactive: Malme-3M 57.9 µM | U-251 32.4 µM | SNB-19 36.5 µM | SK-MEL-5 > 100 µM | TK-10 35.9 µM | MOLT-4 8.61 µM | M14 73.6 µM | 786-0 30.3 µM | A549 93.8 µM | MCF7 32.1 µM | RPMI-8226 38 µM | EKVX 32.7 µM | HCT-116 50 µM | MDA-MB-435 31.8 µM | UACC-257 60.4 µM | OVCAR-4 18.5 µM | SK-MEL-2 29 µM | NCI-H226 > 100 µM | OVCAR-8 48.4 µM

Cc1ccc(S(=O)(=O)NC(=O)NCCC(=O)O)cc1
inactive: Malme-3M > 100 µM | U-251 > 100 µM | SNB-19 > 100 µM | SR > 100 µM | SK-MEL-5 > 100 µM | TK-10 > 100 µM | MOLT-4 > 100 µM | M14 > 100 µM | 786-0 > 100 µM | A549 > 100 µM | MCF7 > 100 µM | RPMI-8226 > 100 µM | HCT-116 > 100 µM | UACC-257 > 100 µM | OVCAR-4 > 100 µM | SK-MEL-2 > 100 µM | OVCAR-8 > 100 µM

Cn1c(=O)c2[nH]c(/N=N\n3ccc4ccccc43)nc2n(C)c1=O
inactive: Malme-3M > 100 µM | U-251 > 100 µM | SNB-19 > 100 µM | SR > 100 µM | SK-MEL-5 > 100 µM | TK-10 > 100 µM | MOLT-4 > 100 µM | M14 > 100 µM | 786-0 > 100 µM | A549 > 100 µM | RPMI-8226 > 100 µM | EKVX > 100 µM | HCT-116 > 100 µM | MDA-MB-435 > 100 µM | UACC-257 > 100 µM | OVCAR-4 > 100 µM | NCI-H226 > 100 µM | OVCAR-8 > 100 µM

Cn1c(=O)c2nc(CCCCC(=O)O)[nH]c2n(C)c1=O
inactive: Malme-3M > 100 µM | U-251 > 100 µM | SNB-19 > 100 µM | SK-MEL-5 > 100 µM | TK-10 > 100 µM | MOLT-4 > 100 µM | M14 > 100 µM | 786-0 > 100 µM | A549 > 100 µM | EKVX > 100 µM | HCT-116 > 100 µM | MDA-MB-435 > 100 µM | UACC-257 > 100 µM | OVCAR-4 > 100 µM | SK-MEL-2 > 100 µM | NCI-H226 > 100 µM | OVCAR-8 > 100 µM

C/C(=N\NC(=N)N)C(CN1CCOCC1)C(c1ccccc1)c1c(O)c2ccccc2oc1=O (stereo not drawn)
inactive: Malme-3M 25.9 µM | U-251 > 100 µM | SNB-19 > 100 µM | SR 80 µM | SK-MEL-5 > 100 µM | TK-10 > 100 µM | MOLT-4 66.2 µM | M14 > 100 µM | 786-0 > 100 µM | A549 > 100 µM | RPMI-8226 85.9 µM | EKVX > 100 µM | HCT-116 90.6 µM | UACC-257 > 100 µM | OVCAR-4 61.9 µM | SK-MEL-2 > 100 µM | NCI-H226 > 100 µM | OVCAR-8 > 100 µM

Cc1cc(C)nc(NS(=O)(=O)c2ccc(NN=c3c4ccccc4n(C)c4ccccc34)cc2)n1
inactive: Malme-3M 35.6 µM | U-251 34.5 µM | SNB-19 42.3 µM | SK-MEL-5 17.2 µM | TK-10 28.6 µM | MOLT-4 15.5 µM | M14 35.5 µM | 786-0 30.2 µM | A549 35.4 µM | MCF7 17.3 µM | RPMI-8226 27.5 µM | EKVX 26.4 µM | HCT-116 25.7 µM | MDA-MB-435 23.8 µM | UACC-257 39.3 µM | OVCAR-4 23.6 µM | SK-MEL-2 15.1 µM | NCI-H226 40.2 µM | OVCAR-8 30.1 µM

Cc1nc2ccccc2c(=O)n1NC(=O)c1ccccn1
inactive: Malme-3M > 100 µM | U-251 > 100 µM | SNB-19 > 100 µM | SR > 100 µM | SK-MEL-5 > 100 µM | TK-10 > 100 µM | MOLT-4 > 100 µM | M14 > 100 µM | 786-0 > 100 µM | A549 > 100 µM | RPMI-8226 > 100 µM | EKVX > 100 µM | HCT-116 > 100 µM | MDA-MB-435 > 100 µM | UACC-257 > 100 µM | OVCAR-4 > 100 µM | OVCAR-8 > 100 µM

CCOC(=O)C(Cc1ccc(OC(=O)c2ccc(OC)cc2)cc1)NC(=O)C(F)(F)F (stereo not drawn)
inactive: Malme-3M > 100 µM | U-251 69.3 µM | SNB-19 > 100 µM | SK-MEL-5 > 100 µM | TK-10 > 100 µM | MOLT-4 > 100 µM | M14 > 100 µM | 786-0 > 100 µM | A549 > 100 µM | MCF7 > 100 µM | RPMI-8226 > 100 µM | EKVX > 100 µM | HCT-116 > 100 µM | MDA-MB-435 > 100 µM | UACC-257 > 100 µM | OVCAR-4 87.7 µM | SK-MEL-2 > 100 µM | NCI-H226 > 100 µM | OVCAR-8 > 100 µM

[N-]=[N+]=NC12CC3C4CC5CC3C(C1)C(C5)C4C2
inactive: Malme-3M > 100 µM | U-251 > 100 µM | SNB-19 > 100 µM | SR > 100 µM | SK-MEL-5 > 100 µM | TK-10 > 100 µM | MOLT-4 > 100 µM | M14 > 100 µM | 786-0 > 100 µM | A549 > 100 µM | RPMI-8226 > 100 µM | EKVX > 100 µM | HCT-116 > 100 µM | UACC-257 > 100 µM | OVCAR-4 > 100 µM | SK-MEL-2 > 100 µM | NCI-H226 > 100 µM | OVCAR-8 > 100 µM

COc1ccc(C[C@H]2COC(=O)[C@@H]2Cc2ccccc2)cc1OC
inactive: Malme-3M > 100 µM | U-251 > 100 µM | SNB-19 > 100 µM | SR > 100 µM | SK-MEL-5 > 100 µM | TK-10 > 100 µM | MOLT-4 > 100 µM | 786-0 > 100 µM | A549 > 100 µM | MCF7 > 100 µM | RPMI-8226 > 100 µM | EKVX > 100 µM | HCT-116 > 100 µM | UACC-257 > 100 µM | NCI-H226 > 100 µM | OVCAR-8 > 100 µM

N#Cc1ccc(Nc2cnc3cc(N)ccc3n2)cc1
inactive: Malme-3M > 100 µM | U-251 > 100 µM | SNB-19 71.4 µM | SR 44.4 µM | SK-MEL-5 > 100 µM | TK-10 > 100 µM | MOLT-4 41.7 µM | M14 > 100 µM | 786-0 85.1 µM | A549 > 100 µM | RPMI-8226 42.7 µM | EKVX 98.2 µM | HCT-116 55 µM | UACC-257 > 100 µM | OVCAR-4 > 100 µM | SK-MEL-2 > 100 µM | NCI-H226 > 100 µM | OVCAR-8 > 100 µM

COc1ccc(C(NS(=O)(=O)c2ccc(C)cc2)c2c(C(CBr)OC)c3ccccc3n2S(=O)(=O)c2ccccc2)cc1OC (stereo not drawn)
inactive: Malme-3M > 100 µM | U-251 > 100 µM | SNB-19 > 100 µM | SK-MEL-5 > 100 µM | TK-10 > 100 µM | MOLT-4 > 100 µM | M14 > 100 µM | 786-0 > 100 µM | A549 > 100 µM | MCF7 > 100 µM | EKVX > 100 µM | HCT-116 > 100 µM | MDA-MB-435 > 100 µM | UACC-257 > 100 µM | OVCAR-4 > 100 µM | SK-MEL-2 > 100 µM | NCI-H226 > 100 µM | OVCAR-8 > 100 µM

OCCN(CCO)c1ncnc2c1sc(=S)n2-c1ccccc1
inactive: Malme-3M > 100 µM | U-251 > 100 µM | SNB-19 > 100 µM | SR > 100 µM | SK-MEL-5 > 100 µM | TK-10 > 100 µM | MOLT-4 > 100 µM | M14 > 100 µM | 786-0 > 100 µM | A549 > 100 µM | RPMI-8226 > 100 µM | EKVX > 100 µM | HCT-116 > 100 µM | UACC-257 > 100 µM | OVCAR-4 > 100 µM | SK-MEL-2 > 100 µM | NCI-H226 > 100 µM | OVCAR-8 > 100 µM

O=[N+]([O-])c1ccc(-c2nn3c(C45CC6CC(CC(C6)C4)C5)nnc3s2)c(Cl)c1
inactive: Malme-3M > 100 µM | U-251 > 100 µM | SNB-19 > 100 µM | SR > 100 µM | SK-MEL-5 > 100 µM | TK-10 > 100 µM | MOLT-4 > 100 µM | M14 > 100 µM | 786-0 > 100 µM | A549 > 100 µM | RPMI-8226 > 100 µM | EKVX > 100 µM | HCT-116 > 100 µM | MDA-MB-435 > 100 µM | OVCAR-4 > 100 µM | SK-MEL-2 > 100 µM | NCI-H226 > 100 µM | OVCAR-8 > 100 µM

CCOC(=O)CNC(=O)C(CCC(=O)NO)NC(=O)CCC(N)C(=O)O (stereo not drawn) (γGlu-Glu(NHOH)-Gly-OEt; configuration not given here)
inactive: U-251 > 100 µM | SNB-19 > 100 µM | SK-MEL-5 > 100 µM | TK-10 > 100 µM | MOLT-4 > 100 µM | M14 > 100 µM | 786-0 > 100 µM | A549 > 100 µM | MCF7 > 100 µM | RPMI-8226 > 100 µM | EKVX > 100 µM | HCT-116 > 100 µM | MDA-MB-435 > 100 µM | UACC-257 > 100 µM | OVCAR-4 > 100 µM | SK-MEL-2 > 100 µM | NCI-H226 > 100 µM | OVCAR-8 > 100 µM
